In patent publication US20220017512A1 (SHANGHAI ENNOVABIO PHARMACEUTICALS CO., LTD., priority 2018, published 2022) one finds IC50 data, which are given here for 15 molecules.

For orientation: IC50 means the concentration that inhibits the measured activity by half.

Where only a bound is given, the exact number is not on record here.

Common to all, as to assay type: biochemical
The target in test [1] is T1, recombinant human TRKA (G595R) (Homo sapiens, UniProt P04629, G595R).
T1 construct: purchased SignalChem
Put plainly: In vitro activity test on mutant TRKA (G595R) (HTRF KinEASE TK). The note with it: 4.5 μM ATP, 30 min. The gist of the method:
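HTRF KinEASE TK format: 0.12 ng/μL recombinant TRKA (G595R), 1 μM biotinylated TK substrate, 4.5 μM ATP, 5 mM MgCl2, 1 mM DTT, 1% DMSO, 30 min at room temperature; detection overnight. IC50 from 10-point 4-fold series (1 μM to 0.004 nM, duplicates), 665/620 ratio, 4-parameter fit.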
On the technique in general: Time-resolved FRET reads energy transfer from a long-lived donor to a nearby acceptor.

The next test has as its target T2, Recombinant human TRKC (Homo sapiens, UniProt Q16288).
T2 construct: purchased Carna Biosciences
Nature of the test: In vitro activity test on TRKC kinase (HTRF KinEASE TK). The note with it: 25.64 μM ATP, 40 min. In outline:
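Recombinant human TRKC (0.037 ng/μL) with 1 μM biotinylated TK substrate, 25.64 μM ATP, 5 mM MgCl2, 1 mM DTT, 40 min at room temperature; compound 1 μM to 0.05 nM, 1% DMSO. HTRF 665/620 ratio after overnight detection; IC50 from 4-parameter fit.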

Another test concerns the target T3, Recombinant human TRKB (Homo sapiens, UniProt Q16620).
T3 construct: purchased Carna Biosciences
Nature of the test: In vitro activity test on TRKB kinase (HTRF KinEASE TK). The note with it: 4.77 μM ATP, 50 min. In outline:
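Recombinant human TRKB (0.037 ng/μL) phosphorylated 1 μM biotinylated TK substrate at 4.77 μM ATP, 5 mM MgCl2, 1% DMSO, 50 min at room temperature; compounds 1 μM–0.05 nM. HTRF KinEASE detection overnight; 665/620 ratio converted to inhibition and IC50 from 4-parameter fit.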

Test [2] deals with T4, recombinant human TRKA (G667C) (Homo sapiens, UniProt P04629, G667C).
T4 construct: purchased SignalChem
Nature of the test: In vitro activity test on mutant TRKA (G667C) (HTRF KinEASE TK). The note with it: 5.5 μM ATP, 30 min. How it is done: Biological Test Example 2 In Vitro Activity Test on Mutant TRKA (G595R), TRKA (G667C) and TRKC (G623R)
The recombinant human TRKA (G595R), TRKA (G667C) and TRKC (G623R) proteins were purchased from SignalChem. HTRF kinEASE TK kit was purchased from CisbioBioassays. Synergy Neo 2 of Biotek was used to read the plate.
The tested compound was subjected to 4-fold serial dilution to reach a final concentration of 1 μM to 0.004 nM (10 concentrates), duplicates for each concentration; and 1% DMSO was present in the detection reaction.
0.026 ng/μL TRKA (G667C) kinase, 1 μM TK Substrate-biotin polypeptide substrate, 5.5 μm ATP, 1× enzymatic buffer, 5 mM MgCl2, and 1 mM DTT. The detection plate was White Proxiplate 384-Plus plate (PerkinElmer), and incubated at room temperature for 30 min, the assay volume was 10 μL.
10 μL of detection reagent was added to the plate (containing 0.125 μM SA-XL665 and 5 μL 1×TK-Antibody) and incubated overnight at room temperature, and Synergy Neo 2 was used to read the plate.
The value of 665/620 Ratio minus the value of negative control wells without enzyme, then the obtained value was converted according to the following formula into inhibition rate (%)=(1−Ratiotest/Ratiomax)×100%. Ratiomax was a positive control without tested compound, and Ratiotest was the value of each concentration of different compounds. IC50 (nM) data was obtained by 4 parameter curve fitting (see Table 1).

The target in another test is T5, Recombinant human TRKA (Homo sapiens, UniProt P04629).
T5 construct: purchased Carna Biosciences
Nature of the test: In vitro activity test on TRKA kinase (HTRF KinEASE TK). The conditions noted are these: 14.68 μM ATP, 40 min. The gist of the method: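 Reaction: 0.2 ng/μL TRKA, 1 μM biotinylated TK substrate, 14.68 μM ATP, 5 mM MgCl2, 1 mM DTT, 1% DMSO, 40 min at room temperature. Compounds tested at 1 μM to 0.05 nM (10-point, 3-fold, duplicate). HTRF 665/620 ratio converted to % inhibition versus no-compound control; IC50 by 4-parameter fit.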

T2 sequence (Q16288 32-839): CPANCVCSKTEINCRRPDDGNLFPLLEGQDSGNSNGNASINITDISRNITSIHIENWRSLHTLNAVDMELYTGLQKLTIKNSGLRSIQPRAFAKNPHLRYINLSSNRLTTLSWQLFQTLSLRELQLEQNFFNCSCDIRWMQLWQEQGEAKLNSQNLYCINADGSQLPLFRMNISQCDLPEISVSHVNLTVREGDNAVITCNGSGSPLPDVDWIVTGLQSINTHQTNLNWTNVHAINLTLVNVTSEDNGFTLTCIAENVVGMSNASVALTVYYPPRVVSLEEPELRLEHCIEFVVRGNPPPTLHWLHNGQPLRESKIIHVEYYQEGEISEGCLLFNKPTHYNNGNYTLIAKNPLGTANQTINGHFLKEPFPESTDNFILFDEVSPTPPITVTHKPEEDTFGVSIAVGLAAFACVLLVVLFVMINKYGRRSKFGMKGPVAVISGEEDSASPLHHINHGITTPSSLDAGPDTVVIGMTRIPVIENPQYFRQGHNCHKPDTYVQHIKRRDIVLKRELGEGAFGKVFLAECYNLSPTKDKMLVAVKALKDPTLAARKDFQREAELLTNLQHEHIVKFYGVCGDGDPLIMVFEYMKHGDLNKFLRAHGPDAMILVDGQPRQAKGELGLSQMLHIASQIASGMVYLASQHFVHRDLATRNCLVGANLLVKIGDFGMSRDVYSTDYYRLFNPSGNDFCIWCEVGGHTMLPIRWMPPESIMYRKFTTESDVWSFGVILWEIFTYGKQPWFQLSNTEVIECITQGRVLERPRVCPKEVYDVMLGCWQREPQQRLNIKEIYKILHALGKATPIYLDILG
T5 sequence (P04629 33-796): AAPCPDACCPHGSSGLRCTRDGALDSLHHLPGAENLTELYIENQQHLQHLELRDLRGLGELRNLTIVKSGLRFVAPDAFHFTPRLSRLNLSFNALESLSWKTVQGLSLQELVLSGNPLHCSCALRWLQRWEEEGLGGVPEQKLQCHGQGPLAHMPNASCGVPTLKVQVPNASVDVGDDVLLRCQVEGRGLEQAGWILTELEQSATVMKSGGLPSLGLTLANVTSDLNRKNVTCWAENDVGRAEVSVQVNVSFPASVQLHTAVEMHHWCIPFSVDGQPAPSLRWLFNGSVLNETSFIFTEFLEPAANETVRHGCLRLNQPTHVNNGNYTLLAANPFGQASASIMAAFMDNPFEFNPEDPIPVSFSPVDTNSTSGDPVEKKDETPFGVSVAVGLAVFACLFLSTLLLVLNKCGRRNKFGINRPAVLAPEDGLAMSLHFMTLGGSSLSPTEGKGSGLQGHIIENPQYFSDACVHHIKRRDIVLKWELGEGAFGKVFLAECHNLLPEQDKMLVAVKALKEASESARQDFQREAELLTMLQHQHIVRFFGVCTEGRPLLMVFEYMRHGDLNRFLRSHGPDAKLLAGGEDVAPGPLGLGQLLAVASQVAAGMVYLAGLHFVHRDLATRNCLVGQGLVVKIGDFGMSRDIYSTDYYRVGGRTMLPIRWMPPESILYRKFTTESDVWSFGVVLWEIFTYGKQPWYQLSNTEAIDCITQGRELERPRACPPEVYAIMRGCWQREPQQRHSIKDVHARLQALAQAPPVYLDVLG
T1 sequence (P04629 33-796 G595R): as the sequence (P04629 33-796) above, with G563R counted along it
T4 sequence (P04629 33-796 G667C): as the sequence (P04629 33-796) above, with G635C counted along it
T3 sequence (Q16620 32-822): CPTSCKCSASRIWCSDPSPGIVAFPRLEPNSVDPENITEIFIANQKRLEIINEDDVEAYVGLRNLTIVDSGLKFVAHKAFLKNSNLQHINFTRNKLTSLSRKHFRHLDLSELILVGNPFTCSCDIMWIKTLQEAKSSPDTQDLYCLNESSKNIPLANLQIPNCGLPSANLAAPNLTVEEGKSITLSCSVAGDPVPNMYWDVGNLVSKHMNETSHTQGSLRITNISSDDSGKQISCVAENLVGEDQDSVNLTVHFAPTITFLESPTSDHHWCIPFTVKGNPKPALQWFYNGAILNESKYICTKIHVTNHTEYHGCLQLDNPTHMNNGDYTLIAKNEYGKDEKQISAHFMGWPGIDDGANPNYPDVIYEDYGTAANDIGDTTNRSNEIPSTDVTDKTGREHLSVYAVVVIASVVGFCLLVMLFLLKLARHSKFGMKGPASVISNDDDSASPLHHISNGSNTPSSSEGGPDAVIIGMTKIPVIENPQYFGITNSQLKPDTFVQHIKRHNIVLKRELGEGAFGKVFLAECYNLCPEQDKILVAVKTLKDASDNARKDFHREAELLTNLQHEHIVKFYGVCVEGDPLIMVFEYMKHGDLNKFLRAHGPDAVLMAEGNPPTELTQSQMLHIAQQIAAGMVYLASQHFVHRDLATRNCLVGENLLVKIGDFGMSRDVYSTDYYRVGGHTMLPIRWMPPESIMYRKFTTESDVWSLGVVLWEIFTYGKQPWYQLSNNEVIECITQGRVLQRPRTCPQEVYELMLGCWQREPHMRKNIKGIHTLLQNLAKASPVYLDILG

For the molecule `COc1ccc(F)cc1[C@H]1CCCN1c1ccc2ncc(Cl)c(-c3cnn(C4CCNCC4)c3)c2n1` [Example 33, (R)-7-chloro-2-(2-(5-fluoro-2-methoxyphenyl)pyrrolidin-1-yl)-8-(1-(piperidin-4-yl)-1H-pyrazol-4-yl)-1,5-naphthyridine], the half-maximal inhibitory concentration (IC50) in test [1] is less than 10 nM; at Recombinant human TRKC, less than 50 nM; on Recombinant human TRKB, less than 10 nM; in test [2] it was less than 10 nM; on Recombinant human TRKA, less than 1 nM.
Turning to `CC(C)(O)Cn1cc(-c2c(Cl)cnc3ccc(N4C[C@@H](F)C[C@@H]4c4cc(F)ccc4F)nc23)cn1` [Example 35, 1-(4-(3-chloro-6-((2R,4S)-2-(2,5-difluorophenyl)-4-fluoropyrrolidin-1-yl)-1,5-naphthyridin-4-yl)-1H-pyrazol-1-yl)-2-methylpropan-2-ol], the concentration for half-maximal inhibition (IC50) was less than 10 nM in test [1]; less than 1 nM on Recombinant human TRKC; less than 1 nM on Recombinant human TRKB; less than 10 nM in test [2]; less than 1 nM on Recombinant human TRKA.
Regarding `N#Cc1cnc2ccc(N3C[C@@H](F)C[C@@H]3c3cc(F)ccc3F)nc2c1-c1cnn(C2CCNCC2)c1` [Example 36, 6-((2R,4S)-2-(2,5-difluorophenyl)-4-fluoropyrrolidin-1-yl)-4-(1-(piperidin-4-yl)-1H-pyrazol-4-yl)-1,5-naphthyridin-3-carbonitrile], the concentration for half-maximal inhibition (IC50) in test [1] was less than 10 nM; on Recombinant human TRKC it was less than 1 nM; on Recombinant human TRKB it was less than 1 nM; in test [2], less than 10 nM; on Recombinant human TRKA, less than 1 nM.
`NC(=O)c1cnc2ccc(N3C[C@@H](F)C[C@@H]3c3cc(F)ccc3F)nc2c1-c1cnn(C2CCNCC2)c1` [Example 37, 6-((2R,4S)-2-(2,5-difluorophenyl)-4-fluoropyrrolidin-1-yl)-4-(1-(piperidin-4-yl)-1H-pyrazol-4-yl)-1,5-naphthyridin-3-carboxamide]: the IC50 in test [1] is less than 10 nM; on Recombinant human TRKC, less than 10 nM; at Recombinant human TRKB, less than 10 nM; in test [2], less than 50 nM; at Recombinant human TRKA, less than 1 nM.
Take `COC1(C)CC(n2cc(-c3c(Cl)cnc4ccc(N5C[C@@H](F)C[C@@H]5c5cc(F)ccc5F)nc34)cn2)C1` (stereo partly drawn) [Example 38, 7-chloro-2-((2R,4S)-2-(2,5-difluorophenyl)-4-fluoropyrrolidin-1-yl)-8-(1-(3-methoxy-3-methylcyclobutyl)-1H-pyrazol-4-yl)-1,5-naphthyridine]: the IC50 in test [1] is less than 50 nM; at Recombinant human TRKC, less than 10 nM; on Recombinant human TRKB, less than 10 nM; in test [2], less than 50 nM; at Recombinant human TRKA it was less than 1 nM.
Regarding `CC1(O)CC(n2cc(-c3c(Cl)cnc4ccc(N5C[C@@H](F)C[C@@H]5c5cc(F)ccc5F)nc34)cn2)C1` (stereo partly drawn) [Example 39, 3-(4-(3-chloro-6-((2R,4S)-2-(2,5-difluorophenyl)-4-fluoropyrrolidin-1-yl)-1,5-naphthyridin-4-yl)-1H-pyrazol-1-yl)-1-methylcyclobutan-1-ol], the IC50 was less than 10 nM in test [1]; less than 1 nM at Recombinant human TRKC; less than 1 nM at Recombinant human TRKB; less than 10 nM in test [2]; less than 1 nM at Recombinant human TRKA.
Regarding `OC[C@H](O)CN1CCC(n2cc(-c3c(Cl)cnc4ccc(N5C[C@@H](F)C[C@@H]5c5cc(F)ccc5F)nc34)cn2)CC1` [Example 40, (R)-3-(4-(4-(3-chloro-6-((2R,4S)-2-(2,5-difluorophenyl)-4-fluoropyrrolidin-1-yl)-1,5-naphthyridin-4-yl)-1H-pyrazol-1-yl)piperidin-1-yl)propane-1,2-diol], the half-inhibitory concentration (IC50) (in test [1]; on Recombinant human TRKC; at Recombinant human TRKB; in test [2]; on Recombinant human TRKA) was less than 1 nM throughout.
For the molecule `Fc1ccc(F)c([C@H]2C[C@H](F)CN2c2ccc3ncc(Cl)c(-c4cnn(C5CCNCC5)n4)c3n2)c1` [Example 41, 7-chloro-2-((2R,4S)-2-(2,5-difluorophenyl)-4-fluoropyrrolidin-1-yl)-8-(2-(piperidin-4-yl)-2H-1,2,3-triazol-4-yl)-1,5-naphthyridine], the 50% inhibitory concentration (IC50) in test [1] was less than 10 nM; on Recombinant human TRKC, less than 1 nM; on Recombinant human TRKB it was less than 1 nM; in test [2], less than 1 nM; on Recombinant human TRKA, less than 1 nM.
With `Fc1ccc(F)c([C@H]2C[C@H](F)CN2c2ccc3ncc(Cl)c(-c4nnc(C5CCNCC5)o4)c3n2)c1` [Example 42, 2-(3-Chloro-6-((2R,4S)-2-(2,5-difluorophenyl)-4-fluoropyrrolidin-1-yl)-1,5-naphthyridin-4-yl)-5-(piperidin-4-yl)-1,3,4-oxadiazole], the 50% inhibitory concentration (IC50) in test [1] was less than 10 nM; at Recombinant human TRKC, less than 1 nM; on Recombinant human TRKB, less than 1 nM; in test [2] it was less than 10 nM; at Recombinant human TRKA, less than 1 nM.
In the case of `CN1CCC(n2cc(-c3c(Cl)cnc4ccc(N5C[C@@H](F)C[C@@H]5c5cc(F)ccc5F)nc34)cn2)CC1` [Example 43, 7-Chloro-2-((2R,4S)-2-(2,5-difluorophenyl)-4-fluoropyrrolidin-1-yl)-8-(1-(1-methylpiperidine-4-yl)-1H-pyrazol-4-yl)-1,5-naphthyridine], the concentration for half-maximal inhibition (IC50) is less than 10 nM in test [1]; less than 1 nM at Recombinant human TRKC; less than 1 nM on Recombinant human TRKB; less than 1 nM in test [2]; less than 1 nM at Recombinant human TRKA.
As to `OC[C@@H](O)CN1CCC(n2cc(-c3c(Cl)cnc4ccc(N5C[C@@H](F)C[C@@H]5c5cc(F)ccc5F)nc34)cn2)CC1` [Example 44, (S)-3-(4-(4-(3-chloro-6-((2R,4S)-2-(2,5-difluorophenyl)-4-fluoropyrrolidin-1-yl)-1,5-naphthyridin-4-yl)-1H-pyrazol-1-yl)piperidin-1-yl)propane-1,2-diol], the IC50 is less than 10 nM in test [1]; less than 1 nM on Recombinant human TRKC; less than 1 nM at Recombinant human TRKB; less than 1 nM in test [2]; less than 1 nM on Recombinant human TRKA.
`Fc1ccc(F)c([C@H]2C[C@H](F)CN2c2ccc3ncnc(-c4cnn(C5CCNCC5)c4)c3n2)c1` [Example 46]: the IC50 (in test [1]; on Recombinant human TRKC; at Recombinant human TRKB; in test [2]; on Recombinant human TRKA) was less than 1 nM throughout.
As to `O=S1(=O)CCC(n2cc(-c3c(Cl)cnc4ccc(N5C[C@@H](F)C[C@@H]5c5cc(F)ccc5F)nc34)cn2)CC1` [Example 47, 4-(4-(3-chloro-6-((2R,4S)-2-(2,5-difluorophenyl)-4-fluoropyrrolidin-1-yl)-1,5-naphthyridin-4-yl)-1H-pyrazol-1-yl)tetrahydro-2H-thiopyran 1,1-dioxide], the concentration for half-maximal inhibition (IC50) in test [1] was less than 10 nM; at Recombinant human TRKC, less than 1 nM; at Recombinant human TRKB, less than 1 nM; in test [2], less than 1 nM; at Recombinant human TRKA it was less than 1 nM.
As for `Fc1ccc(F)c([C@H]2C[C@H](F)CN2c2ccc3ncc(Cl)c(-c4ccn(C5CCNCC5)c4)c3n2)c1` [Example 48, 7-chloro-2-((2R,4S)-2-(2,5-difluorophenyl)-4-fluoropyrrolidin-1-yl)-8-(1-(piperidin-4-yl)-1H-pyrrol-3-yl)-1,5-naphthyridine], the IC50 in test [1] was less than 10 nM; on Recombinant human TRKC it was less than 1 nM; on Recombinant human TRKB, less than 1 nM; in test [2], less than 10 nM; on Recombinant human TRKA it was less than 1 nM.
With `O=C(Nc1c(Cl)cnc2ccc(N3C[C@@H](F)C[C@@H]3c3cc(F)ccc3F)nc12)N1CC[C@H](O)C1` [Example 49, (S)-N-(3-Chloro-6-((2R,4S)-2-(2,5-difluorophenyl)-4-fluoropyrrolidin-1-yl)-1,5-naphthyridin-4-yl)-3-hydroxypyrrolidin-1-carboxamide], the IC50 in test [1] is less than 10 nM; on Recombinant human TRKC, less than 10 nM; on Recombinant human TRKB, less than 1 nM; in test [2] it was less than 10 nM; at Recombinant human TRKA, less than 1 nM.
